Where two headings read alike, the source gives them in different places.
Columns and labels:
KMT9 [1] = molecular target: T1, KMT9 (Homo sapiens, UniProt Q9Y5N5); assay: Microscale thermophoresis (MST) KMT9 binding
T1 sequence (Q9Y5N5 1-214): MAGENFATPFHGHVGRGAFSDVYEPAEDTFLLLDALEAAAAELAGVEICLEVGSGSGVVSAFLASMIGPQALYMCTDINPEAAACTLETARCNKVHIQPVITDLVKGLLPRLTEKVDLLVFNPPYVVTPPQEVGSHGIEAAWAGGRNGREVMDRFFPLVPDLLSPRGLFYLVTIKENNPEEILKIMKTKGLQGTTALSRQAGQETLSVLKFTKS
T1 sequence (Q9UI30 1-120 isoform Q9UI30-2 partner): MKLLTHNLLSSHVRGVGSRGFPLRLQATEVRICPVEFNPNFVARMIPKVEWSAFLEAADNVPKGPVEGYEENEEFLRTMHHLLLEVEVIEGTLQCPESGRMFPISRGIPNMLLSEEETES
In short: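 Kd from microscale thermophoresis: compound series against 20 nM His-KMT9 labelled via RED-Tris-NTA, buffer 25 mM HEPES (pH 7.5)/100 mM NaCl/1 mM DTT/0.05% Tween, 40% MST power, 100% LED. Reported as classes: A ≤10 nM, B >10–100 nM, C >100–1000 nM, D >1000 nM.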

KMT9 [2] = molecular target: T1, KMT9; assay: KMT9 thermal shift assay (SyproOrange); format: binding
In short: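 ΔTm versus DMSO-only control is reported in bins (>20 K, 15–20 K, 10–15 K, ≤10 K), using Tm from Boltzmann sigmoidal fits of SyproOrange melt curves. KMT9 with compound in pH 8.5 BTP buffer containing MgCl2 and DTT was preincubated at 25° C, then ramped 1° C per 15 s up to 95° C.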

KMT9 [3] = molecular target: T1, KMT9; assay: KMT9 methyltransferase inhibition assay, MTaseGlo luminescence (from entry 155); format: biochemical; settings: 100 nM KMT9, 5 μM ETF1, 1 μM SAM
In short: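 KMT9 (100 nM final) pre-incubated with inhibitor for 15 min at room temperature, then reacted with 5 μM ETF1 and 1 μM SAM for 2 h at 30° C. at 2% DMSO final. MTaseGlo luminescence read after 60 min detection; IC50 reported in four potency bins.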

[4] = His-tag labelled KMT9 20 nM, Kd class, read-out: MST
[5] = ΔTm class, 500 uM compound, 2 μM KMT9, read-out: Thermal shift
[6] = IC50 class, MTaseGlo procedure (entries from 155 on), read-out: Inhibition
[7] = His-tag labelled KMT9 20 nM, read-out: MST (Kd)
[8] = 500 µM compound, 2 μM KMT9, read-out: Thermal shift (ΔTm)
[9] = MTaseGlo procedure (entries from 155), read-out: Inhibition (IC50)
[10] = microscale thermophoresis, His-tag labelled KMT9 (20 nM), read-out: MST
[11] = ΔTm, 500 µM compound, 2 μM KMT9, 5X SO, read-out: Thermal shift
[12] = from entry 155: MTaseGlo assay, read-out: Inhibition

Compound `O[C@@H]1[C@H](O)[C@@H](C2=CCCN(CC3CC3)C2)C[C@H]1n1cc(-c2nc(Cc3ccccc3)cs2)c2cnc(Cl)nc21` [Compound 586, (1R,2S,3R,5R)-3-[5-(4-Benzyl-1,3-thiazol-2-yl)-2-chloropyrrolo[2,3-d]pyrimidin-7-yl]-5-[1-(cyclopropylmethyl)-5,6-dihydro-2H-pyridin-3-yl]cyclopentane-1,2-diol] has a Kd (KMT9 [1]; [4]) of 100 to 1000 nM, a ΔTm at 500 µM (KMT9 [2]; [5]) of no more than 10 °C and an IC50 (KMT9 [3]; [6]) of 1000 to 10000 nM.

`O[C@@H]1[C@H](O)[C@@H](C2=CCCN(C3CC3)C2)C[C@H]1n1cc(-c2nc(Cc3ccccc3)cs2)c2cnc(Cl)nc21` [Compound 587, (1R,2S,3R,5R)-3-[5-(4-Benzyl-1,3-thiazol-2-yl)-2-chloropyrrolo[2,3-d]pyrimidin-7-yl]-5-(1-cyclopropyl-5,6-dihydro-2H-pyridin-3-yl)cyclopentane-1,2-diol] showed a Kd (KMT9 [1]; [4]) greater than 1000 nM, a ΔTm at 500 µM (KMT9 [2]; [5]) of no more than 10 °C and an IC50 (KMT9 [3]; [6]) greater than 10000 nM.

Work on `O[C@@H]1[C@H](O)[C@@H](C2=CCCN(CCc3ccccc3)C2)C[C@H]1n1cc(-c2nc(Cc3ccccc3)cs2)c2cnc(Cl)nc21` [Compound 588, (1R,2S,3R,5R)-3-[5-(4-Benzyl-1,3-thiazol-2-yl)-2-chloropyrrolo[2,3-d]pyrimidin-7-yl]-5-[1-(2-phenylethyl)-5,6-dihydro-2H-pyridin-3-yl]cyclopentane-1,2-diol] yielded a Kd (KMT9 [1]; [4]) greater than 1000 nM, a ΔTm at 500 µM (KMT9 [2]; [5]) of no more than 10 °C and an IC50 (KMT9 [3]; [6]) greater than 10000 nM.

Work on `Nc1ncnc2c1c(-c1nc(Cc3ccccc3)cs1)cn2[C@@H]1C[C@H]([C@H]2CCNC2)[C@@H](O)[C@H]1O` [Compound 589R, (1R,2S,3R,5R)-3-[4-Amino-5-(4-benzyl-1,3-thiazol-2-yl)pyrrolo[2,3-d]pyrimidin-7-yl]-5-[(3R)-pyrrolidin-3-yl]cyclopentane-1,2-diol] yielded a Kd (KMT9 [1]; [4]) of 100 to 1000 nM, a ΔTm at 500 µM (KMT9 [2]; [5]) of 10 to 15 °C and an IC50 (KMT9 [3]; [6]) of 1000 to 10000 nM.

`Nc1ncnc2c1c(-c1nc(Cc3ccccc3)cs1)cn2[C@@H]1C[C@H]([C@@H]2CCNC2)[C@@H](O)[C@H]1O` [Compound 589S, (1R,2S,3R,5R)-3-[4-Amino-5-(4-benzyl-1,3-thiazol-2-yl)pyrrolo[2,3-d]pyrimidin-7-yl]-5-[(3S)-pyrrolidin-3-yl]cyclopentane-1,2-diol] was tested, and the Kd (KMT9 [1]; [4]) was 100 to 1000 nM, the ΔTm at 500 µM (KMT9 [2]; [5]) was 10 to 15 °C and the IC50 (KMT9 [3]; [6]) was 1000 to 10000 nM.

`Nc1nc(Cl)nc2c1ccn2[C@@H]1C[C@H](c2ccc(=O)[nH]c2)[C@@H](O)[C@H]1O` [Compound 590, 5-[(1R,2R,3S,4R)-4-{4-Amino-2-chloropyrrolo[2,3-d]pyrimidin-7-yl}-2,3-dihydroxycyclopentyl]-1H-pyridin-2-one] gave a Kd (KMT9 [1]; [7]) of 100 to 1000 nM, a ΔTm at 500 µM (KMT9 [2]; [8]) of no more than 10 °C and an IC50 (KMT9 [3]; [9]) of 1000 to 10000 nM.

`COc1ccc([C@H]2C[C@@H](n3ccc4c(N)nc(Cl)nc43)[C@H](O)[C@@H]2O)cn1` [Compound 591, (1R,2S,3R,5R)-3-{4-amino-2-chloropyrrolo[2,3-d]pyrimidin-7-yl}-5-(6-methoxypyridin-3-yl)cyclopentane-1,2-diol] gave a Kd (KMT9 [1]; [7]) of 10 to 100 nM, a ΔTm at 500 µM (KMT9 [2]; [8]) of 10 to 15 °C and an IC50 (KMT9 [3]; [9]) of 100 to 1000 nM.

Work on `NCCc1cccc([C@H]2C[C@@H](n3ccc4c(N)ncnc43)[C@H](O)[C@@H]2O)c1` [Compound 592, (1S,2R,3R,5R)-3-[3-(2-Aminoethyl)phenyl]-5-{4-aminopyrrolo[2,3-d]pyrimidin-7-yl}cyclopentane-1,2-diol] yielded a Kd (KMT9 [1]; [7]) greater than 1000 nM, a ΔTm at 500 µM (KMT9 [2]; [8]) of no more than 10 °C and an IC50 (KMT9 [3]; [9]) of 1000 to 10000 nM.

Compound `CC1CNCCC1[C@H]1C[C@@H](n2cc(-c3nc(Cc4ccccc4)cs3)c3c(N)ncnc32)[C@H](O)[C@@H]1O` (stereo partly drawn) [Compound 595, (1R,2S,3R,5R)-3-[4-amino-5-(4-benzyl-1,3-thiazol-2-yl)pyrrolo[2,3-d]pyrimidin-7-yl]-5-(3-methylpiperidin-4-yl)cyclopentane-1,2-diol] has a Kd (KMT9 [1]; [7]) of 100 to 1000 nM, a ΔTm at 500 µM (KMT9 [2]; [8]) of 10 to 15 °C and an IC50 (KMT9 [3]; [9]) of 1000 to 10000 nM.

`CNc1nc(Cl)nc2c1ccn2[C@@H]1C[C@H](c2ccccc2)[C@@H](O)[C@H]1O` [Compound 596, (1R,2S,3R,5R)-3-(2-Chloro-4-(methylamino)-7H-pyrrolo[2,3-d]pyrimidin-7-yl)-5-phenylcyclopentane-1,2-diol] showed a Kd (KMT9 [1]; [7]) of 100 to 1000 nM, a ΔTm at 500 µM (KMT9 [2]; [8]) of no more than 10 °C and an IC50 (KMT9 [3]; [9]) of 1000 to 10000 nM.

For `CN1CCC[C@H]([C@H]2C[C@@H](n3cc(-c4nc(Cc5ccccc5)cs4)c4c(N)nc(Cl)nc43)[C@H](O)[C@@H]2O)C1` [Compound 597R, (1R,2S,3R,5R)-3-(4-Amino-5-(4-benzylthiazol-2-yl)-2-chloro-7H-pyrrolo[2,3-d]pyrimidin-7-yl)-5-((R)-1-methylpiperidin-3-yl)cyclopentane-1,2-diol], the Kd (KMT9 [1]; [7]) was no more than 10 nM, the ΔTm at 500 µM (KMT9 [2]; [8]) was 15 to 20 °C and the IC50 (KMT9 [3]; [9]) was 100 to 1000 nM.

For `CN1CCC[C@@H]([C@H]2C[C@@H](n3cc(-c4nc(Cc5ccccc5)cs4)c4c(N)nc(Cl)nc43)[C@H](O)[C@@H]2O)C1` [Compound 597S, (1R,2S,3R,5R)-3-(4-amino-5-(4-benzylthiazol-2-yl)-2-chloro-7H-pyrrolo[2,3-d]pyrimidin-7-yl)-5-((S)-1-methylpiperidin-3-yl)cyclopentane-1,2-diol], the Kd (KMT9 [1]; [7]) was no more than 10 nM, the ΔTm at 500 µM (KMT9 [2]; [8]) was 15 to 20 °C and the IC50 (KMT9 [3]; [9]) was 100 to 1000 nM.

For `Nc1ncnc2c1c(-c1nc(Oc3ccccc3)cs1)cn2[C@@H]1C[C@H](CNCCCNCCc2ccccc2)[C@@H](O)[C@H]1O` [Compound 607, (1R,2S,3R,5R)-3-(4-amino-5-(4-phenoxythiazol-2-yl)-7H-pyrrolo[2,3-d]pyrimidin-7-yl)-5-(((3-(phenethylamino)propyl)amino)methyl)cyclopentane-1,2-diol], the Kd (KMT9 [1]; [10]) was 10 to 100 nM, the ΔTm at 500 µM (KMT9 [2]; [11]) was 15 to 20 °C and the IC50 (KMT9 [3]; [12]) was 100 to 1000 nM.

In the case of `O[C@@H]1[C@@H](CNCCCNCCc2ccccc2)C[C@@H](n2cc(-c3nc(Cc4ccccc4)cs3)c3cncnc32)[C@@H]1O` [Compound 613, (1R,2S,3R,5R)-3-(5-(4-benzylthiazol-2-yl)-7H-pyrrolo[2,3-d]pyrimidin-7-yl)-5-(((3-(phenethylamino)propyl)amino)methyl)cyclopentane-1,2-diol], the Kd (KMT9 [1]; [10]) is reported as greater than 1000 nM, the ΔTm at 500 µM (KMT9 [2]; [11]) is reported as 10 to 15 °C and the IC50 (KMT9 [3]; [12]) is reported as 1000 to 10000 nM.

Compound `COc1csc(-c2cn([C@@H]3C[C@H](CNCCCNCCc4ccccc4)[C@@H](O)[C@H]3O)c3ncncc23)n1` [Compound 615, (1R,2S,3R,5R)-3-(5-(4-Methoxythiazol-2-yl)-7H-pyrrolo[2,3-d]pyrimidin-7-yl)-5-(((3-(phenethylamino)propyl)amino)methyl)cyclopentane-1,2-diol] has a Kd (KMT9 [1]; [4]) greater than 1000 nM, a ΔTm at 500 µM (KMT9 [2]; [5]) of no more than 10 °C and an IC50 (KMT9 [3]; [6]) greater than 10000 nM.

In the case of `O[C@@H]1[C@@H](CN(CCCNCCc2ccccc2)c2cn[nH]c2)C[C@@H](n2cc(-c3cccs3)c3cncnc32)[C@@H]1O` [Compound 616], the Kd (KMT9 [1]; [10]) is reported as 10 to 100 nM, the ΔTm at 500 µM (KMT9 [2]; [11]) is reported as 10 to 15 °C and the IC50 (KMT9 [3]; [12]) is reported as 1000 to 10000 nM.

For `O[C@@H]1[C@@H](CNCCCNCCc2ccccc2)C[C@@H](n2cc(-c3cc(Cc4ccccc4)ns3)c3cncnc32)[C@@H]1O` [Compound 617, (1R,2S,3R,5R)-3-[5-(3-Benzyl-1,2-thiazol-5-yl)pyrrolo[2,3-d]pyrimidin-7-yl]-5-[({3-[(2-phenylethyl)amino]propyl}amino)methyl]cyclopentane-1,2-diol], the Kd (KMT9 [1]; [10]) was greater than 1000 nM, the ΔTm at 500 µM (KMT9 [2]; [11]) was 10 to 15 °C and the IC50 (KMT9 [3]; [12]) was 1000 to 10000 nM.

With `O[C@@H]1[C@@H](CNCCCNCCc2ccc(F)cc2)C[C@@H](n2cc(-c3cc(Cc4ccccc4)cs3)c3cncnc32)[C@@H]1O` [Compound 618, (1R,2S,3R,5R)-3-[5-(4-Benzylthiophen-2-yl)pyrrolo[2,3-d]pyrimidin-7-yl]-5-{[(3-{[2-(4-fluorophenyl)ethyl]amino}propyl)amino]methyl}cyclopentane-1,2-diol] the Kd (KMT9 [1]; [4]) was 100 to 1000 nM, the ΔTm at 500 µM (KMT9 [2]; [5]) was 10 to 15 °C and the IC50 (KMT9 [3]; [6]) was 1000 to 10000 nM.

Work on `O[C@@H]1[C@@H](CNCCCNCCc2ccc(C(F)(F)F)cc2)C[C@@H](n2cc(-c3cc(Cc4ccccc4)cs3)c3cncnc32)[C@@H]1O` [Compound 619, (1R,2S,3R,5R)-3-(5-(4-Benzylthiophen-2-yl)-7H-pyrrolo[2,3-d]pyrimidin-7-yl)-5-(((3-((4-(trifluoromethyl)phenethyl)amino)propyl)amino)methyl)cyclopentane-1,2-diol] yielded a Kd (KMT9 [1]; [4]) greater than 1000 nM, a ΔTm at 500 µM (KMT9 [2]; [5]) of no more than 10 °C and an IC50 (KMT9 [3]; [6]) greater than 10000 nM.

Source: US20250188110A1, “SPECIFIC SMALL MOLECULE INHIBITORS THAT BLOCK KMT9 METHYLTRANSFERASE ACTIVITY AND FUNCTION” (ALBERT-LUDWIGS-UNIVERSITÄT FREIBURG, priority 2021, published 2025)
